The target in test [1] is T1, human GLP-1 receptor (Homo sapiens, UniProt P43220).
T1 construct: expressed in transfected cells; host or cells: BHK cells (parent line BHKTS13), clone FCW467-12A; membrane preparation
In words: In vitro potency: CRE luciferase reporter gene assay in BHK cells expressing the human GLP-1 receptor. The format is cell-based. As for the experimental part: The purpose of this example is to test the activity, or potency, of the GLP-1 derivatives in vitro. The in vitro potency is the measure of human GLP-1 receptor activation in a whole cell assay.
In vitro potency was determined by measuring the response of the human GLP-1 receptor in a reporter gene assay. The assay was performed in a stably transfected BHK cell line that expresses the human GLP-1 receptor and contains the DNA for the cAMP response element (CRE) coupled to a promoter and the gene for firefly luciferase (CRE luciferase). When the human GLP-1 receptor is activated it results in the production of cAMP, which in turn results in the luciferase protein being expressed. When assay incubation is completed the luciferase substrate (luciferin) is added and the enzyme converts luciferin to oxyluciferin to produce bioluminescence. The luminescence is measured as the readout for the assay.
The cells were cultured at 5% CO2 in cell culture medium. They were aliquoted and stored in liquid nitrogen. Before each assay an aliquot was taken up and washed twice in PBS before being suspended at the desired concentration in the assay specific buffer.
The assay buffer consisted of 2% ovalbumin and 0.2% Pluronic F-68 in assay medium.
1) Cell stocks were thawed in a 37° C. water bath.
2) Cells were washed three times in PBS.
3) Cells were counted and adjusted to 5×10^3 cells/50 μl (1×10^5 cells/ml) in assay medium. A 50 μl aliquot of cells was transferred to each well in the assay plate.
4) Stocks of the test compounds and reference compounds were diluted to a concentration of 0.2 μM in assay buffer. […] 8) A 100 μl aliquot of steadylite plus reagent was added to each well of the assay plate. 9) Each assay plate was covered with aluminum foil to protect it from light and shaken for 30 min at room temperature. 10) Each assay plate was read in a BioTek Synergy 2 Multi-Mode Reader. Calculations and Results
The data from the BioTek Synergy 2 Multi-Mode Reader were transferred to GraphPad Prism software. The software performs a non-linear regression (log(agonist) vs response (three parameters)).
A minimum of two replicates were measured for each sample. The reported EC50 values are averages of all of the measured values for each compound.

Test [2] addresses T1, human GLP-1 receptor. In words: GLP-1 receptor binding: competitive binding assay (125I-GLP-1, SPA) on isolated membranes at low and high HSA. The method, then:
The purpose of this example is to test the receptor binding of the GLP-1 derivatives in vitro. The receptor binding is a measure of affinity of a derivative for the human GLP-1 receptor.
Each derivative is added in a series of concentrations to isolated membranes containing the human GLP-1 receptor and displacement of the labelled ligand is monitored. The receptor binding is reported as the concentration at which half of the labelled ligand is displaced from the receptor, the IC50 value.
Buffer 1 consisted of 20 mM Na-HEPES plus 10 mM EDTA and pH was adjusted to 7.4. Buffer 2 consisted of 20 mM Na-HEPES plus 0.1 mM EDTA and pH was adjusted to 7.4. Assay buffer consisted of 50 mM HEPES supplemented with 5 mM EGTA, 5 mM MgCl2, 0.005% Tween 20 and pH was adjusted to 7.4. An 8% albumin stock consisted of HSA dissolved at 8% (w/v) in assay buffer. An 0.02% albumin stock consisted of HSA dissolved at 0.02% (w/v) in assay buffer.
The cells express the human GLP-1 receptor.
The cells were grown at 5% CO2 in DMEM, 10% fetal calf serum, 1% Pen/Strep (Penicillin/Streptomycin) and 1.0 mg/ml of the selection marker G418. To make a membrane preparation the cells were grown to approximately 80% confluence. The cells were washed twice in phosphate-buffered saline and harvested. The cells were pelleted using a brief centrifugation and the cell pellet was kept on ice. […] The homogenate was centrifuged for 15 minutes. The pellet was re-suspended (homogenised) in 10 ml buffer 2 and centrifuged. This step was repeated once more. The resulting pellet was re-suspended in buffer 2 and the protein concentration was determined. The membranes were aliquoted and stored at minus 80° C.
1. […] Assay continued with step 3.
2. For the receptor binding assay in the presence of high HSA (2%) 50 μl of the 8% albumin stock was added to each well of an assay plate. Assay continued with step 3.
4. Cell membrane aliquots were thawed and diluted to their working concentration. Fifty μl were added to each well in the assay plate.
5. WGA SPA beads were suspended in assay buffer at 20 mg/ml. The suspension was diluted to 10 mg/ml in assay buffer just prior to addition to the assay plate. Fifty μl were added to each well in the assay plate.
6. […] A 25 μl aliquot was reserved for measuring total counts/well.
7. The assay plate was incubated for 2 h at 30° C.
8. The assay plate was centrifuged for 10 min.
9. The assay plate was read in a Packard TopCount NXT instrument.
The data from the TopCount instrument were transferred to GraphPad Prism software. Individual replicates were analysed using non-linear regression. IC50 values were calculated by the software and reported in nM. The reported values are averages of all of the measured values for each compound.

Where [3] appears, read: high HSA (2.0% final assay concentration), read-out: High HSA IC50.

Where two headings read alike, the source gives them in different places. Non-standard residues stand in square brackets, D forms with d. Residues, ends and D or L forms follow the SMILES beside them. Groups on a side chain read outwards from the residue. *: point of attachment. X2 = O=C(O)CCCCCCCCCCCCCCCCCCC(=O)NC[C@H]1CC[C@H](C(=O)N[C@@H](CCC(=O)NCCCN(CCCNC(=O)CC[C@H](NC(=O)[C@H]2CC[C@H](CNC(=O)CCCCCCCCCCCCCCCCCCC(=O)O)CC2)C(=O)O)CC(=O)*)C(=O)O)CC1; AEEA = NCCOCCOCC(=O)O; Aib = CC(C)(N)C(=O)O

By EC50 is commonly meant the midpoint of the concentration-response curve. By IC50 is commonly meant the concentration needed to halve the response being measured.

T1 sequence (P43220 24-463): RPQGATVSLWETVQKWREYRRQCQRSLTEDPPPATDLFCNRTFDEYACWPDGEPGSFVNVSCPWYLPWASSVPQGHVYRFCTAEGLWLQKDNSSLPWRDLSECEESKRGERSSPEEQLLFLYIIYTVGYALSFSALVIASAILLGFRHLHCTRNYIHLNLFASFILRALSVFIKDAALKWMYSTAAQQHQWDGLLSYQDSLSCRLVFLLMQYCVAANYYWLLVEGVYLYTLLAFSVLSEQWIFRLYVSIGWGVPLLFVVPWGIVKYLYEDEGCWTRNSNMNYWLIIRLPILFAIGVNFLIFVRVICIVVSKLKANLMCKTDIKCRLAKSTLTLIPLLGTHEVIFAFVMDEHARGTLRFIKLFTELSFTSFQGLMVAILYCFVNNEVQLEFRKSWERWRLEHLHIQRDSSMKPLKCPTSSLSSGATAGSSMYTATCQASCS

Turning to `CC[C@H](C)[C@H](NC(=O)[C@H](Cc1ccccc1)NC(=O)[C@H](CCC(=O)O)NC(=O)[C@H](CCCNC(=N)N)NC(=O)[C@H](C)NC(=O)[C@H](C)NC(=O)[C@H](CCC(N)=O)NC(=O)[C@H](CCC(=O)O)NC(=O)[C@H](CCC(=O)O)NC(=O)[C@H](CC(C)C)NC(=O)[C@H](Cc1ccc(O)cc1)NC(=O)[C@H](CO)NC(=O)[C@H](CO)NC(=O)[C@@H](NC(=O)[C@H](CC(=O)O)NC(=O)[C@H](CO)NC(=O)[C@@H](NC(=O)[C@H](Cc1ccccc1)NC(=O)[C@@H](NC(=O)CNC(=O)[C@H](CCC(=O)O)NC(=O)C(C)(C)NC(=O)[C@@H](N)Cc1c[nH]cn1)[C@@H](C)O)[C@@H](C)O)C(C)C)C(=O)N[C@@H](C)C(=O)N[C@@H](Cc1c[nH]c2ccccc12)C(=O)N[C@@H](CC(C)C)C(=O)N[C@H](C(=O)N[C@@H](CCCNC(=N)N)C(=O)NCC(=O)N[C@@H](CCCNC(=N)N)C(=O)N[C@@H](CCCCNC(=O)CN(CCCNC(=O)COCCOCCNC(=O)COCCOCCNC(=O)COCCOCCNC(=O)COCCOCCNC(=O)COCCOCCNC(=O)COCCOCCNC(=O)CC[C@H](NC(=O)CCCNC(=O)CCCCCCCCCCCCCCCS(=O)(=O)O)C(=O)O)CCCNC(=O)COCCOCCNC(=O)COCCOCCNC(=O)COCCOCCNC(=O)COCCOCCNC(=O)COCCOCCNC(=O)COCCOCCNC(=O)CC[C@H](NC(=O)CCCNC(=O)CCCCCCCCCCCCCCCS(=O)(=O)O)C(=O)O)C(=O)O)C(C)C` [Example 18, N{Epsilon-37}-[2-[bis[3-[[2-[2-[2-[[2-[2-[2-[[2-[2-[2-[[2-[2-[2-[[2-[2-[2-[[2-[2-[2-[[(4S)-4-carboxy-4-[4-(16-sulfohexadecanoylamino)butanoylamino]butanoyl]amino]ethoxy]ethoxy]acetyl]amino]ethoxy]ethoxy]acetyl]amino]ethoxy]ethoxy]acetyl]amino]ethoxy]ethoxy]acetyl]amino]ethoxy]ethoxy]acetyl]amino]ethoxy]ethoxy]acetyl]amino]propyl]amino]acetyl]-[Aib8,Glu22,Arg26,Arg34,Lys37]-GLP-1-(7-37)-peptide], the EC50 in test [1] was 0.0013 nM. Further, the IC50 in test [2] (High HSA IC50, high HSA (2.0% final assay concentration)) came out at 5.7 nM; in test [2] (Low HSA IC50, low HSA (max. 0.001% final assay concentration)), 0.18 nM.
Take `CC[C@H](C)[C@H](NC(=O)[C@H](Cc1ccccc1)NC(=O)[C@H](CCC(=O)O)NC(=O)[C@H](CCCNC(=N)N)NC(=O)[C@H](C)NC(=O)[C@H](C)NC(=O)[C@H](CCC(N)=O)NC(=O)[C@H](CCC(=O)O)NC(=O)[C@H](CCC(=O)O)NC(=O)[C@H](CC(C)C)NC(=O)[C@H](Cc1ccc(O)cc1)NC(=O)[C@H](CO)NC(=O)[C@H](CO)NC(=O)[C@@H](NC(=O)[C@H](CC(=O)O)NC(=O)[C@H](CO)NC(=O)[C@@H](NC(=O)[C@H](Cc1ccccc1)NC(=O)[C@@H](NC(=O)CNC(=O)[C@H](CCC(=O)O)NC(=O)C(C)(C)NC(=O)[C@@H](N)Cc1c[nH]cn1)[C@@H](C)O)[C@@H](C)O)C(C)C)C(=O)N[C@@H](C)C(=O)N[C@@H](Cc1c[nH]c2ccccc12)C(=O)N[C@@H](CC(C)C)C(=O)N[C@H](C(=O)N[C@@H](CCCNC(=N)N)C(=O)NCC(=O)N[C@@H](CCCNC(=N)N)C(=O)N[C@@H](CCCCNC(=O)CN(CCCNC(=O)COCCOCCNC(=O)COCCOCCNC(=O)COCCOCCNC(=O)COCCOCCNC(=O)COCCOCCNC(=O)CC[C@H](NC(=O)CCCNC(=O)CCCCCCCCCCCCCCCS(=O)(=O)O)C(=O)O)CCCNC(=O)COCCOCCNC(=O)COCCOCCNC(=O)COCCOCCNC(=O)COCCOCCNC(=O)COCCOCCNC(=O)CC[C@H](NC(=O)CCCNC(=O)CCCCCCCCCCCCCCCS(=O)(=O)O)C(=O)O)C(=O)O)C(C)C` [Example 17, N{Epsilon-37}-[2-[bis[3-[[2-[2-[2-[[2-[2-[2-[[2-[2-[2-[[2-[2-[2-[[2-[2-[2-[[(4S)-4-carboxy-4-[4-(16-sulfohexadecanoylamino)butanoylamino]butanoyl]amino]ethoxy]ethoxy]acetyl]amino]ethoxy]ethoxy]acetyl]amino]ethoxy]ethoxy]acetyl]amino]ethoxy]ethoxy]acetyl]amino]ethoxy]ethoxy]acetyl]amino]propyl]amino]acetyl]-[Aib8,Glu22,Arg26,Arg34,Lys37]-GLP-1-(7-37)-peptide]: the EC50 in test [1] (whole cell reporter gene assay, BHK cells, human GLP-1 receptor, average of at least two replicates, read-out: EC50) was 0.0012 nM. For the same molecule, the half-maximal inhibitory concentration (IC50) in test [2] (setting [3]) turned out to be 3.2 nM; in test [2] (low HSA (max. 0.001% final assay concentration), read-out: Low HSA IC50), 0.16 nM.
Consider `CC[C@H](C)[C@H](NC(=O)[C@H](Cc1ccccc1)NC(=O)[C@H](CCC(=O)O)NC(=O)[C@H](CCCNC(=N)N)NC(=O)[C@H](C)NC(=O)[C@H](C)NC(=O)[C@H](CCC(N)=O)NC(=O)[C@H](CCC(=O)O)NC(=O)[C@H](CCC(=O)O)NC(=O)[C@H](CC(C)C)NC(=O)[C@H](Cc1ccc(O)cc1)NC(=O)[C@H](CO)NC(=O)[C@H](CO)NC(=O)[C@@H](NC(=O)[C@H](CC(=O)O)NC(=O)[C@H](CO)NC(=O)[C@@H](NC(=O)[C@H](Cc1ccccc1)NC(=O)[C@@H](NC(=O)CNC(=O)[C@H](CCC(=O)O)NC(=O)C(C)(C)NC(=O)[C@@H](N)Cc1c[nH]cn1)[C@@H](C)O)[C@@H](C)O)C(C)C)C(=O)N[C@@H](C)C(=O)N[C@@H](Cc1c[nH]c2ccccc12)C(=O)N[C@@H](CC(C)C)C(=O)N[C@H](C(=O)N[C@@H](CCCNC(=N)N)C(=O)NCC(=O)N[C@@H](CCCCNC(=O)COCCOCCNC(=O)COCCOCCNC(=O)COCCOCCNC(=O)COCCOCCNC(=O)COCCOCCNC(=O)COCCOCCNC(=O)CN(CCCNC(=O)CC[C@H](NC(=O)[C@H]1CC[C@H](CNC(=O)CCCCCCCCCCCCCCCCCCC(=O)O)CC1)C(=O)O)CCCNC(=O)CC[C@H](NC(=O)[C@H]1CC[C@H](CNC(=O)CCCCCCCCCCCCCCCCCCC(=O)O)CC1)C(=O)O)C(=O)NCC(=O)O)C(C)C` [Example 30] (H-H[Aib]EGTFTSDVSSYLEEQAAREFIAWLVRGK([AEEA-AEEA-AEEA-AEEA-AEEA-AEEA-X2])G-OH; N-terminus and C-terminus assumed), for which, in test [2] (setting [3]), the IC50 came out at 4.1 nM.

The record behind these values is patent US11572398B2, “GLP-1 derivatives and uses thereof” (Novo Nordisk A/S, priority 2014, dated 2023).
